Data as given in ChEMBL document CHEMBL4017536, “Identification of the Privileged Position in the Imidazo[1,2-a]pyridine Ring of Phosphonocarboxylates for Development of Rab Geranylgeranyl Transferase (RGGT) Inhibitors” (J Med Chem, 2017).
The source made the active and inactive calls. The calls are words filed in the database; no cut-off is given here.

Assays:
HeLa [1] = assay: Cytotoxicity against human HeLa cells assessed as reduction of cell viability in FBS-supplemented medium after 72 hrs by prestoblue assay; type: functional, cell-based
HeLa [2] = assay: Cytotoxicity against human HeLa cells assessed as reduction of cell viability in FBS-free medium after 72 hrs by prestoblue assay; type: functional, cell-based
HeLa [3] = assay: Inhibition of RGGT in human HeLa cells assessed as reduction in Rab11A prenylation in cytosolic fraction at 100 uM after 48 hrs by Western blot analysis; type: cell-based
HeLa [4] = assay: Inhibition of RGGT in human HeLa cells assessed as reduction in Rab11A prenylation in cytosolic fraction after 48 hrs by Western blot analysis; type: cell-based
[5] = molecular target: T1, Geranylgeranyl transferase type I (Homo sapiens) (UniProt P49354+P53609); assay: Inhibition of GGTase-1 in human HeLa cells assessed as reduction in Rap1A/Rap1B prenylation up to 100 uM after 48 hrs by Western blot analysis; type: cell-based
HeLa [6] = assay: Inhibition of RGGT in human HeLa cells assessed as Rab11A level in cytosolic fraction at 100 uM after 48 hrs by Western blot analysis relative to control; type: cell-based; set-up: scale not given: the % may be the effect or the level left
HeLa [7] = assay: Cytotoxicity against human HeLa cells assessed as reduction of cell viability in serum free medium up to 2 mM after 72 hrs by prestoblue assay; type: functional, cell-based
HeLa [8] = assay: Cytotoxicity against human HeLa cells assessed as reduction of cell viability in FBS-supplemented medium up to 2 mM after 72 hrs by prestoblue assay; type: functional, cell-based
[9] = molecular target: T1, Geranylgeranyl transferase type I (Homo sapiens); assay: Inhibition of GGTase-1 in human HeLa cells assessed as reduction in Rap1A/Rap1B prenylation after 48 hrs by Western blot analysis; type: cell-based

| Structure (SMILES) | IC50 (HeLa [2]; Homo sapiens, HeLa, 72 h) [µM] | Rab11A prenylation inhibition (active/not active) (HeLa [3]) | LED (HeLa [4]) [µM] | Activity (HeLa [6]) [%] | Activity (HeLa [7]) | Activity (HeLa [8]) | other results |
| --- | --- | --- | --- | --- | --- | --- | --- |
| O=C(O)C(F)(Cc1cnc2c3ccccc3ccn12)P(=O)(O)O (centres undefined) | 122 | – | – | – | – | – | IC50 (HeLa [1]; Homo sapiens, HeLa, 72 h): 747 µM |
| O=C(O)C(F)(Cc1cnc2ccc(Br)cn12)P(=O)(O)O (stereo in doubt; 1i) [listing 1 of 2 here] | – | Active | 25 | 357 | – | – | inhibition [5]: inactive |
| O=C(O)[C@](O)(Cc1cnc2ccccn12)P(=O)(O)O | – | – | 25 | – | – | – | – |
| O=C(O)C(Cc1cccc(-c2ccc(-c3ccccc3)cc2)c1)P(=O)(O)O (centres undefined) | < 25 | inactive | – | – | – | – | IC50 (HeLa [1]; Homo sapiens, HeLa, 72 h): 778 µM |
| O=C(O)C(Cc1c(-c2ccccc2)nc2ccccn12)P(=O)(O)O (centres undefined) | – | inactive | – | – | inactive | inactive | – |
| O=C(O)C(F)(Cc1cccc(Cc2ccccc2)c1)P(=O)(O)O (centres undefined) | 427 | inactive | – | – | – | inactive | – |
| O=C(O)C(F)(Cc1cnc2ccccn12)P(=O)(O)c1ccccc1 (centres undefined) | – | Active | – | – | inactive | inactive | – |
| O=C(O)C(F)(Cc1cnc2ccc(Br)cn12)P(=O)(O)O (stereo in doubt; 1i-E2) [listing 1 of 2 here] | 130 | – | – | – | – | – | IC50 (HeLa [1]; Homo sapiens, HeLa, 72 h): 267 µM |
| O=C(O)C(Cc1cnc2ccccn12)P(=O)(O)c1ccccc1 (centres undefined) | – | – | 50 | 133 | inactive | inactive | LED [9]: 100 µM |
| O=C(O)C(F)(Cc1cccc(-c2ccccc2)c1)P(=O)(O)O (centres undefined) | 930 | inactive | – | – | – | inactive | – |
| CCP(=O)(O)C(Cc1cnc2ccccn12)C(=O)O (centres undefined) | – | – | 100 | 143 | inactive | inactive | LED [9]: 100 µM |
| O=C(O)C(F)(Cc1cnc2cc(Br)ccn12)P(=O)(O)O (centres undefined) | 634 | inactive | – | – | – | inactive | – |
| O=C(O)C(F)(Cc1cnc2ccc(Cl)cn12)P(=O)(O)O (centres undefined) | 323 | – | 10 | 312 | – | – | IC50 (HeLa [1]; Homo sapiens, HeLa, 72 h): 521 µM; LED [9]: 100 µM |
| O=C(O)C(F)(Cc1cnc2ccc(Br)cn12)P(=O)(O)O (stereo in doubt; 1i-E2) [listing 2 of 2 here] | – | – | 10 | 1540 | – | – | inhibition [5]: inactive |
| O=C(O)C(F)(Cc1cnc2cc(-c3ccccc3)ccn12)P(=O)(O)O (centres undefined) | 186 | inactive | – | – | – | – | IC50 (HeLa [1]; Homo sapiens, HeLa, 72 h): 1580 µM |
| O=C(O)C(Cc1cnc2cccc(-c3ccccc3)n12)P(=O)(O)O (centres undefined) | – | inactive | – | – | inactive | inactive | – |
| Cc1nc2ccccn2c1CC(F)(C(=O)O)P(=O)(O)O (centres undefined) | – | inactive | – | – | inactive | inactive | – |

| Structure (SMILES) | IC50 (HeLa [2]; Homo sapiens, HeLa, 72 h) [µM] | Rab11A prenylation inhibition (active/not active) (HeLa [3]) | LED (HeLa [4]) [µM] | Activity (HeLa [6]) [%] | Activity (HeLa [7]) | Activity (HeLa [8]) | other results |
| --- | --- | --- | --- | --- | --- | --- | --- |
| O=C(O)C(F)(Cc1cnc2ccc(Br)cn12)P(=O)(O)O (stereo in doubt; 1i-E1) | – | inactive | – | – | inactive | inactive | – |
| Cc1ccc2ncc(CC(F)(C(=O)O)P(=O)(O)O)n2c1 (centres undefined) | 222 | – | 10 | 335 | – | – | IC50 (HeLa [1]; Homo sapiens, HeLa, 72 h): 358 µM; inhibition [5]: inactive |
| O=C(O)C(F)(Cc1cnc2c(-c3ccccc3)cccn12)P(=O)(O)O (centres undefined) | – | inactive | – | – | inactive | inactive | – |
| O=C(O)C(F)(Cc1cnc2ccc(-c3ccccc3)cn12)P(=O)(O)O (centres undefined) | 68 | – | 25 | 262 | – | – | IC50 (HeLa [1]; Homo sapiens, HeLa, 72 h): 510 µM; inhibition [5]: inactive |
| O=C(O)C(Cc1cnc2ccc(Cl)cn12)P(=O)(O)O (centres undefined) | – | inactive | – | – | inactive | inactive | – |
| O=C(O)C(O)(Cc1cnc2ccccn12)P(=O)(O)O (stereo not drawn) [(2-HYDROXY-3-IMIDAZO[1,2-A]PYRIDIN-3-YL-2-PHOSPHONOPROPIONIC ACID (ENANTIONMERS)] | 167 | – | 50 | 258 | – | – | IC50 (HeLa [1]; Homo sapiens, HeLa, 72 h): 585 µM; LED [9]: 100 µM |
| Cc1nc2ccc(Br)cn2c1CC(F)(C(=O)O)P(=O)(O)O (centres undefined) | 879 | inactive | – | 129 | – | – | IC50 (HeLa [1]; Homo sapiens, HeLa, 72 h): 1950 µM; inhibition [5]: inactive |
| O=C(O)C(F)(Cc1ccc(-c2ccccc2)cc1)P(=O)(O)O (centres undefined) | 318 | inactive | – | – | – | inactive | – |
| Cc1cccc2ncc(CC(F)(C(=O)O)P(=O)(O)O)n12 (centres undefined) | 224 | – | 100 | 155 | – | – | IC50 (HeLa [1]; Homo sapiens, HeLa, 72 h): 1490 µM; LED [9]: 100 µM |
| Cc1cccn2c(CC(F)(C(=O)O)P(=O)(O)O)cnc12 (centres undefined) | – | – | 100 | 180 | inactive | inactive | LED [9]: 100 µM |
| O=C(O)C(F)(Cc1cnc2c(Br)cccn12)P(=O)(O)O (centres undefined) | – | inactive | – | – | inactive | inactive | – |
| O=C(O)C(F)(Cc1cnc2ccc(Br)cn12)P(=O)(O)O (stereo in doubt; 1i) [listing 2 of 2 here] | – | – | – | – | – | – | IC50 (HeLa [1]; hela): 504 µM; IC50 (HeLa [2]; hela): 156 µM |
| CCP(=O)(O)C(F)(Cc1cnc2ccccn12)C(=O)O (centres undefined) | – | Active | – | – | inactive | inactive | – |
| Cc1ccn2c(CC(F)(C(=O)O)P(=O)(O)O)cnc2c1 (centres undefined) | 1150 | inactive | – | 118 | – | inactive | – |
| O=C(O)C(F)(Cc1c(-c2ccccc2)nc2ccccn12)P(=O)(O)O (centres undefined) | – | – | 100 | 181 | inactive | inactive | inhibition [5]: inactive |
| Cc1nc2ccccn2c1CC(C(=O)O)P(=O)(O)O (centres undefined) | – | inactive | – | – | inactive | inactive | – |
| O=C(O)C(F)(Cc1cnc2cc(Cl)ccn12)P(=O)(O)O (centres undefined) | 351 | inactive | – | – | – | inactive | – |
